Data reported in publication PMC4076079, “Selective inhibitors of a PAF biosynthetic enzyme lysophosphatidylcholine acyltransferase 2” (Journal of Lipid Research, 2014).
pIC50: −log10 of the molar value. Read-outs that look alike come from different tables or passages of the source.

Assays:
hLPCAT1 [1] = molecular target: T1, hLPCAT1 (Homo sapiens, UniProt Q8NF37); assay: lyso-PAFAT (acetyltransferase) activity assay, PAF product by LC-MS/MS; type: biochemical; conditions: for pIC50: 0, 0.2, 0.6, 2, 6 and 20 μM of each compound in triplicate, LC-MS/MS, read-out: IC50, product PAF, enzyme hLPCAT1; for percentage inhibition, product PAF, hLPCAT1: 20 μM compound, microsomal fractions of nonstimulated CHO-S-PAFR cells, n = 3, mean ± SEM
T1 construct: expressed in transfected cells
T1 sequence (Q8NF37 1-534): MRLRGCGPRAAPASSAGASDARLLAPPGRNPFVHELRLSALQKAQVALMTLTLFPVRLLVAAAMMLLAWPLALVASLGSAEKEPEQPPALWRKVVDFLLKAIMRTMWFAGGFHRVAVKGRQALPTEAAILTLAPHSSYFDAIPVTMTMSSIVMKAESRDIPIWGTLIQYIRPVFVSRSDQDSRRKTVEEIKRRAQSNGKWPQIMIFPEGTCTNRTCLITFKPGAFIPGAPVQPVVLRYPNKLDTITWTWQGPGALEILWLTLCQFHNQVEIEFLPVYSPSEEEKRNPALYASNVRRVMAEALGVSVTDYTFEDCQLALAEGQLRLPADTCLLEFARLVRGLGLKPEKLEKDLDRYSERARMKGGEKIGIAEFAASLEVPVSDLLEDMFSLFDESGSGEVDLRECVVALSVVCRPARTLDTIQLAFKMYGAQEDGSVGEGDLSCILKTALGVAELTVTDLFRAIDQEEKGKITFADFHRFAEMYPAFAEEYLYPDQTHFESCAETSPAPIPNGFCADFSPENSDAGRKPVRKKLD
Description: (§1) Microsomal protein fractions (0.5 μg) supplemented with the indicated compound concentrations were added to the reaction mixture containing 100 mM Tris-HCl (pH 7.4), 1 μM CaCl2, 0.015% Tween-20, and two substrates. For acetyltransferase activity, the substrates were 1 mM acetyl-CoA and 5 μM d4-lyso-PAF; for the acyltransferase activity of LPCAT1 or LPCAT2, the substrates were, respectively, palmitoyl-CoA and d31-16:0 LPC or arachidonoyl-CoA and d4-lyso-PAF (all 5 μM). Each lysophospholipid contained fatty acid at the sn-1 position. After incubation at 37°C for 5 min, the reactions were stopped by adding 300 μl methanol containing 17:0 LPC or 14:0/14:0 PC as an internal standard. Deuterium-labeled products were analyzed by LC-MS/MS (Waters, Milford, MA and Thermo Scientific, Waltham, MA). […]
(§2) Steps 2 to 5 screening: 96-well plate assay
(§3) Acetyltransferase and acyltransferase assays were developed in 96-well plates. The microsomal hLPCAT2, obtained from mcPAF-stimulated CHO-S-PAFR cells was used in steps 1, 2, and 5. The microsomal hLPCAT1 obtained from unstimulated CHO-S cells was used in steps 3 to 5. Each well of the 96-well plates contained 30 µl of 15 µg/ml protein, 600 nl of 2 mM compound, 30 µl buffer C, and two substrates (Fig. 1B and C).
(§4) Substrate concentrations were as follows: acetyl-CoA, 250 or 1000 µM acetyl-CoA; […]
(§5) arachidonoyl-CoA, 5 µM; palmitoyl-CoA, 5 µM; d4-lyso-PAF, 5 µM; and d31-LPC, 5 µM.
(§6) For step 5, compound concentrations were 0, 0.167, 0.67, 2, 6.7, and 20 µM. The deuterium-labeled products were measured by LC-MS/MS. Percentage inhibition (steps 2 to 4) or IC50 (step 5) was used as the hit criterion. […]
(§7) Step 7 screening: species-specific differences
(§8) To evaluate the effects on the activity of mouse or human LPCAT1 and LPCAT2, each microsomal fraction was obtained using CHO-S-PAFR cells with or without mcPAF (200 nM) stimulation for 5 min. Acetyltransferase and acyltransferase assays were performed with 20 µM of each compound. Percentage inhibition was calculated in each

hLPCAT1 [2] = molecular target: T1, hLPCAT1; assay: acyltransferase activity assay, DPPC product by LC-MS/MS; type: biochemical; conditions: for pIC50: 0, 0.2, 0.6, 2, 6 and 20 μM of each compound in triplicate, LC-MS/MS, read-out: IC50, product DPPC, enzyme hLPCAT1; for percentage inhibition, product DPPC, hLPCAT1: 20 μM compound, microsomal fractions of nonstimulated CHO-S-PAFR cells, n = 3, mean ± SEM
Description: as §1, §2, §3, §4, §5, §6, §7, §8

RAW-mLPCAT2 cells = assay: cell-based assay: A23187-induced PAF production, PAF and lyso-PAF by LC-MS/MS; set-up: species or system mouse; conditions: for pIC50: Mus musculus
Description: RAW-mLPCAT2 cells and peritoneal macrophages were seeded in 24-well plates (4 × 10^6 cells/well) for 24 or 2 h, respectively, before treatment. RAW-mLPCAT2 cells were stimulated with 5 μM A23187 for 5 min after a 1 h treatment with the compounds. Peritoneal macrophages were preincubated with 100 ng/ml LPS for 18 h, treated with the compounds for 1 h, and stimulated with 5 μM A23187 for 5 min. To analyze cellular PAF levels, lipids were extracted with 500 μl methanol containing d4-PAF and d4-lyso-PAF as internal standards. Each sample was submitted to solid phase extraction using an Oasis HLB 96-well cartridge cluster (Waters), and PAF and lyso-PAF were measured by LC-MS/MS as previously described ([13]).
Chromatography was performed using an Acquity™ Ultra-performance LC system (Waters) coupled to a TSQ Vantage triple stage quadrupole mass spectrometer (Thermo Scientific) with a HESI-II electrospray ionization source ([13]). Phospholipids were separated on BEH C8 columns (1.7 μm, 2.1 × 30 mm or 1 × 100 mm; Waters) for the analysis of assay products or the composition of cellular PAF and lyso-PAF, respectively. The mobile phase contained 20 mM aqueous ammonium bicarbonate and acetonitrile. The extracts from peritoneal macrophages were separated on a Kinetex C8 column (1.7 μm, 2.1 × 100 mm; Phenomenex, Torrance, CA) by a gradient elution with 0.05% formic acid-water and acetonitrile, using the Nexera X2 system and LCMS-8080 mass spectrometer (Shimadzu, Kyoto, Japan) ([13]). Lyso-PAF, d4-PAF, and d31-DPPC were identified by the choline fragment (m/z 184) as a product ion of selected reaction monitoring in the positive ion mode. Nonlabeled PAF and d4-16:0/20:4 alkyl-PC were determined by fatty acid anions of sn-2 composition (m/z 59 and 303, respectively) in the negative ion mode. Mass spectra were processed using the Xcalibur 2.0 (Thermo Scientific) or LabSolutions 5.50 (Shimadzu) software. Signal intensities were determined relative to the internal standard or as the percentage of the positive control. […]
Step 9 screening: cell-based assay
RAW-mLPCAT2 cells were treated with compounds for 1 h and analyzed after 5 min stimulation with A23187. The assays were performed with 0, 0.2, 0.6, 20, and 50 or 60 µM of compound. PAF concentration was measured by LC-MS/MS.
The data were normalized to each positive control (100% activation). Percentage inhibition or IC50 were determined in each screening step. To assess screening quality, the percentage coefficient of variance and the Z’ factor was calculated for each plate or each assay as described previously (2).

[3] = 1 h pretreatment, 5 μM A23187 for 5 min
[4] = screening step 9 (n = 2), 1 h compound, 5 min A23187, read-out: IC50, A23187-induced PAF production

## CC(C)OC(=O)c1ccc(N2C(=O)C(Cl)=C(Cl)C2=O)cc1 [TSI-01, propan-2-yl 4-(3,4-dichloro-2,5-dioxopyrrol-1-yl)benzoate]
hLPCAT1 [1]
  pIC50: 5.52
  percentage inhibition, product PAF, hLPCAT1: 75.9 ± 5.2 percentage
hLPCAT1 [2]
  pIC50: < 4.70
  percentage inhibition, product DPPC, hLPCAT1: 25.3 ± 8.7 percentage
RAW-mLPCAT2 cells; [3]
  A23187-induced PAF production: suppressed
  lyso-PAF level: increased
RAW-mLPCAT2 cells; 1 h pretreatment, 5 μM A23187 for 5 min, Fig. 4, three independent experiments, read-out: IC50, inhibition of PAF production
  pIC50: 4.41
RAW-mLPCAT2 cells; [4]
  pIC50: 4.55

## O=C1C(Cl)=C(N2CCOCC2)C(=O)N1c1ccc(Oc2ccccc2)cc1 [TSI-02, 3-chloro-4-morpholin-4-yl-1-(4-phenoxyphenyl)pyrrole-2,5-dione]
hLPCAT1 [1]
  pIC50: 5.10
hLPCAT1 [2]
  pIC50: < 4.70
RAW-mLPCAT2 cells; [4]
  pIC50: 4.63

## CC(C)OC(=O)c1ccc(N2C(=O)C(Cl)=C(Nc3ccccc3O)C2=O)cc1 [TSI-07]
hLPCAT1 [1]
  pIC50: < 4.70
  percentage inhibition, product PAF, hLPCAT1: 11.9 ± 13.1 percentage
hLPCAT1 [2]
  pIC50: < 4.70
  percentage inhibition, product DPPC, hLPCAT1: 19.5 ± 8.0 percentage
RAW-mLPCAT2 cells; [3]
  A23187-induced PAF production: suppressed
  lyso-PAF level: decreased

## CCCOC(=O)c1ccc(N2C(=O)C(Cl)=C(Cl)C2=O)cc1 [TSI-10]
hLPCAT1 [1]
  pIC50: 5.62
  percentage inhibition, product PAF, hLPCAT1: 76.1 ± 4.4 percentage
hLPCAT1 [2]
  pIC50: < 4.70
  percentage inhibition, product DPPC, hLPCAT1: 23.9 ± 3.4 percentage
RAW-mLPCAT2 cells; [3]
  A23187-induced PAF production: suppressed
  lyso-PAF level: increased

## CCCCOC(=O)c1ccc(N2C(=O)C(Cl)=C(Cl)C2=O)cc1 [TSI-11, butyl 4-(3,4-dichloro-2,5-dioxopyrrol-1-yl)benzoate]
hLPCAT1 [1]
  pIC50: 6.00
  percentage inhibition, product PAF, hLPCAT1: 78.6 ± 2.8 percentage
hLPCAT1 [2]
  pIC50: < 4.70
  percentage inhibition, product DPPC, hLPCAT1: 14.2 ± 4.8 percentage
RAW-mLPCAT2 cells; [3]
  A23187-induced PAF production: suppressed
  lyso-PAF level: not changed
